Tests used:
[1] = biological target: T1, ATR kinase (full-length ATR) (Homo sapiens, UniProt Q13535); test: ATR Inhibition Assay (radioactive-phosphate incorporation); type: biochemical; conditions: Ki(app); 5 nM full-length ATR, 10 μM ATP, 800 μM target peptide, 25° C.
T1 construct: in the presence of 5 nM full-length ATR
Description: Compounds were screened for their ability to inhibit ATR kinase using a radioactive-phosphate incorporation assay. Assays were carried out in a mixture of 50 mM Tris/HCl (pH 7.5), 10 mM MgCl2 and 1 mM DTT. Final substrate concentrations were 10 μM [γ-33P]ATP (3 mCi 33P ATP/mmol ATP, Perkin Elmer) and 800 μM target peptide (ASELPASQPQPFSAKKK (SEQ. ID NO: 1)).
Assays were carried out at 25° C. in the presence of 5 nM full-length ATR. An assay stock buffer solution was prepared containing all of the reagents listed above, with the exception of ATP and the test compound of interest. 13.5 μL of the stock solution was placed in a 96 well plate followed by addition of 2 μL of DMSO stock containing serial dilutions of the test compound (typically starting from a final concentration of 15 μM with 3-fold serial dilutions) in duplicate (final DMSO concentration 7%). The plate was pre-incubated for 10 minutes at 25° C. and the reaction initiated by addition of 15 μL [γ-33P]ATP (final concentration 10 μM).
The reaction was stopped after […] by the addition of 30 μL 0.1M phosphoric acid containing 2 mM ATP. A multiscreen phosphocellulose filter 96-well plate (Millipore, Cat no. MAPHN0B50) was pretreated with 100 μL 0.2M phosphoric acid prior to the addition of 45 μL of the stopped assay mixture. The plate was washed with 5×200 μL 0.2M phosphoric acid. After drying, 100 μL Optiphase ‘SuperMix’ liquid scintillation cocktail (Perkin Elmer) was added to the well prior to scintillation counting (1450 Microbeta Liquid Scintillation Counter, Wallac).
After removing mean background values for all of the data points, Ki(app) data were calculated from non-linear regression analysis of the initial rate data using the Prism software package (GraphPad Prism version 3.0cx for Macintosh, GraphPad Software, San Diego Calif., USA).

[2] = system: HCT116 colorectal cancer cells; test: Cisplatin Sensitization Assay (96 h cell viability MTS); type: cell-based; conditions: concentration of compound required to reduce the IC50 of Cisplatin alone by at least 3-fold; HCT116, 96 h MTS
Description: Compounds can be screened for their ability to sensitize HCT116 colorectal cancer cells to Cisplatin using a 96 h cell viability (MTS) assay. […] Compounds and Cisplatin are then both added simultaneously to the cell media in 2-fold serial dilutions from a top final concentration of 10 μM as a full matrix of concentrations in a final cell volume of 200 μl, and the cells are then incubated at 37° C. in 5% CO2. After 96 h, 40 μl of MTS reagent (Promega G358a) is added to each well and the cells are incubated for 1 h at 37° C. in 5% CO2. Finally, absorbance is measured at 490 nm using a SpectraMax Plus 384 reader (Molecular Devices) and the concentration of compound required to reduce the IC50 of Cisplatin alone by at least 3-fold (to 1 decimal place) can be reported.

T1 sequence (Q13535 whole entry): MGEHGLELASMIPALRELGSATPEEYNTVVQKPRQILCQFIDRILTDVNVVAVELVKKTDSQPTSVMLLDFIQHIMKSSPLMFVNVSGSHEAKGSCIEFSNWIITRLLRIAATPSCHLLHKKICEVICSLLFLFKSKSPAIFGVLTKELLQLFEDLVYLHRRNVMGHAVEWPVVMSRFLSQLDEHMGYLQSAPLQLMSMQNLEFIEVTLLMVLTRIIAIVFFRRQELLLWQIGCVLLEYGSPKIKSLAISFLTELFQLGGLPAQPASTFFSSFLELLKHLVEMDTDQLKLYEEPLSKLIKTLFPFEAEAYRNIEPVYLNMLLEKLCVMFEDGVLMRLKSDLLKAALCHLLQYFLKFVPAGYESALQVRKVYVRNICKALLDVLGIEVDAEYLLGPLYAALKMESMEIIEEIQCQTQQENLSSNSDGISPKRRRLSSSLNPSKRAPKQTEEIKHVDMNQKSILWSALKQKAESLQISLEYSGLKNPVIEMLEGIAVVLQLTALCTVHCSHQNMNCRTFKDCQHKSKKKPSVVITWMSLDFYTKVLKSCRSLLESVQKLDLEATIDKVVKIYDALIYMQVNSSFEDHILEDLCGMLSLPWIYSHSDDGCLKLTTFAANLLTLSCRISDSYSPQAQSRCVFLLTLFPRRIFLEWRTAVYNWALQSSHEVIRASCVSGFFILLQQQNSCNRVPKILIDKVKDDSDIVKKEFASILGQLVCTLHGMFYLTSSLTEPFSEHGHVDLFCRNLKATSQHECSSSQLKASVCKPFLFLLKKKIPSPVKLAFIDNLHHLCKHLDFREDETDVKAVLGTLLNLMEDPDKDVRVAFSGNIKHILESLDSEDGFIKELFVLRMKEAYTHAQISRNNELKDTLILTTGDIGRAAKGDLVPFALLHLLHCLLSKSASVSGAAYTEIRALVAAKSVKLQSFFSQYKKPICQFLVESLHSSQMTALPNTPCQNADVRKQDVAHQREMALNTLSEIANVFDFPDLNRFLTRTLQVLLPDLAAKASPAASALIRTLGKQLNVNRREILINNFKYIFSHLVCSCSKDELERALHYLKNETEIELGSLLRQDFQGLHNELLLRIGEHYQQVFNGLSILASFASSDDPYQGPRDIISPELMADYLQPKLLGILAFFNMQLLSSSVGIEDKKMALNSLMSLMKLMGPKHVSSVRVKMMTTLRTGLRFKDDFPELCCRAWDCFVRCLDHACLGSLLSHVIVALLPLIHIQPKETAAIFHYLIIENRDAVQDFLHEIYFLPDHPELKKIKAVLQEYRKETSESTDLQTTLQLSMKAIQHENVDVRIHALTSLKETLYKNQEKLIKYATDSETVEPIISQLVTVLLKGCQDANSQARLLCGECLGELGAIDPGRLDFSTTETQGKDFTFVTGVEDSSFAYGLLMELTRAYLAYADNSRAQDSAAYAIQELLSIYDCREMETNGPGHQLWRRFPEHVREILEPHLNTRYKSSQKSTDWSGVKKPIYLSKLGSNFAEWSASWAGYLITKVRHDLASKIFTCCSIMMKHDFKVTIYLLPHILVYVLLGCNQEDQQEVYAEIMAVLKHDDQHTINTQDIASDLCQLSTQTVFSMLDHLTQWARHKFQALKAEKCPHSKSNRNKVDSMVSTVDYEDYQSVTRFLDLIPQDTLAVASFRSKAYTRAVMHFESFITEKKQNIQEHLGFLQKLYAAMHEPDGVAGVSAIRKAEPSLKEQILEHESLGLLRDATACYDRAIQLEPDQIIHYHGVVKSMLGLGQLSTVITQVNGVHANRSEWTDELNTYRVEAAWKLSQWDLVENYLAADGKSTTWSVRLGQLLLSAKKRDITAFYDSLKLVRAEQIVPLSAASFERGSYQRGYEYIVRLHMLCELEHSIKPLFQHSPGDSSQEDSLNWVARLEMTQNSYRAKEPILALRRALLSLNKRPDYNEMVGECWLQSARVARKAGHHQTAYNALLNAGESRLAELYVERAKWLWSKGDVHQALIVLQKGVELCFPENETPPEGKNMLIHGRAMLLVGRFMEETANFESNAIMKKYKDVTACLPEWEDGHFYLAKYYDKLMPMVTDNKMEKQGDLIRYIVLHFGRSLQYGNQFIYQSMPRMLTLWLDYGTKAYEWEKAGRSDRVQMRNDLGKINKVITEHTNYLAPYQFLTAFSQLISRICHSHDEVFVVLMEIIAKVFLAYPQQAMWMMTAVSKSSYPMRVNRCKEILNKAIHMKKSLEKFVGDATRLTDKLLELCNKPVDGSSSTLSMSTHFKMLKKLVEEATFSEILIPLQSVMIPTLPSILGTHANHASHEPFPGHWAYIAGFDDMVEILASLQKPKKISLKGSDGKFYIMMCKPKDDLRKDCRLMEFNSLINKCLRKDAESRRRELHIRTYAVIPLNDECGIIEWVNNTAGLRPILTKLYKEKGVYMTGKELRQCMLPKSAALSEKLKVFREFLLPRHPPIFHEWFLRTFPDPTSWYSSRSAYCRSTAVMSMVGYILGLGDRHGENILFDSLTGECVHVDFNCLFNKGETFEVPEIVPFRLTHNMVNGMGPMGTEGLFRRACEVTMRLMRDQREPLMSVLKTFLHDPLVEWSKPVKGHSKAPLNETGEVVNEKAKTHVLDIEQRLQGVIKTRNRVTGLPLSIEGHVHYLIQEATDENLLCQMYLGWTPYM

SMILES	Ki [1] [nM]	Cisplatin Sensitization Assay [2]
Cn1cncc1-c1cnncc1NC(=O)c1c(N)nn2cc(F)cnc12 [I-B-15, 2-amino-6-fluoro-N-(5-(1-methyl-1H-imidazol-5-yl)pyridazin-4-yl)pyrazolo[1,5-a]pyrimidine-3-carboxamide]	10 to 1000	++ (Compounds with a Cisplatin sensitization value >0.02 μM but <0.2 μM are marked with “++.”)
Cc1ncccc1-c1cnncc1NC(=O)c1c(N)nn2cc(F)cnc12 [I-B-4, 2-amino-6-fluoro-N-(5-(2-methylpyridin-3-yl)pyridazin-4-yl)pyrazolo[1,5-a]pyrimidine-3-carboxamide]	10 to 1000	+++ (Compounds with a Cisplatin sensitization value of <0.02 μM are marked with “+++.”)
Cc1nsc(NC(=O)c2c(N)nn3cc(F)cnc23)c1-c1cncn1C [I-E-6, 2-amino-6-fluoro-N-(3-methyl-4-(1-methyl-1H-imidazol-5-yl)isothiazol-5-yl)pyrazolo[1,5-a]pyrimidine-3-carboxamide]	10 to 1000	+++ (Compounds with a Cisplatin sensitization value of <0.02 μM are marked with “+++.”)
Cc1nsc(NC(=O)c2c(N)nn3cc(F)cnc23)c1-c1ccccc1 [I-E-7, 2-amino-6-fluoro-N-(3-methyl-4-phenylisothiazol-5-yl)pyrazolo[1,5-a]pyrimidine-3-carboxamide]	< 10	+++ (Compounds with a Cisplatin sensitization value of <0.02 μM are marked with “+++.”)
CN1CCN(C(=O)C2CCN(c3cnncc3NC(=O)c3c(N)nn4cc(F)cnc34)CC2)CC1 [I-B-5, 2-amino-6-fluoro-N-(5-(4-(4-methylpiperazine-1-carbonyl)piperidin-1-yl)pyridazin-4-yl)pyrazolo[1,5-a]pyrimidine-3-carboxamide]	10 to 1000	++ (Compounds with a Cisplatin sensitization value >0.02 μM but <0.2 μM are marked with “++.”)
Cc1nsc(NC(=O)c2c(N)nn3cc(F)cnc23)c1C1=CCN(C)CC1 [I-E-5, 2-amino-6-fluoro-N-(3-methyl-4-(1-methyl-1,2,3,6-tetrahydropyridin-4-yl)isothiazol-5-yl)pyrazolo[1,5-a]pyrimidine-3-carboxamide]	10 to 1000	+++ (Compounds with a Cisplatin sensitization value of <0.02 μM are marked with “+++.”)
Cc1nsc(NC(=O)c2c(N)nn3cc(F)cnc23)c1-c1ccnn1C [I-E-8]	10 to 1000	+++ (Compounds with a Cisplatin sensitization value of <0.02 μM are marked with “+++.”)
Cc1cnccc1-c1cnccc1NC(=O)c1c(N)nn2cc(F)cnc12 [I-C-6, 2-amino-6-fluoro-N-(3′-methyl-[3,4′-bipyridin]-4-yl)pyrazolo[1,5-a]pyrimidine-3-carboxamide]	10 to 1000	++ (Compounds with a Cisplatin sensitization value >0.02 μM but <0.2 μM are marked with “++.”)
CC(C)(C)N1CCN(C(=O)C2CCN(c3cnncc3NC(=O)c3c(N)nn4cc(F)cnc34)CC2)CC1 [I-B-10, 2-amino-N-(5-(4-(4-(tert-butyl)piperazine-1-carbonyl)piperidin-1-yl)pyridazin-4-yl)-6-fluoropyrazolo[1,5-a]pyrimidine-3-carboxamide]	10 to 1000	++ (Compounds with a Cisplatin sensitization value >0.02 μM but <0.2 μM are marked with “++.”)
Cc1nsc(NC(=O)c2c(N)nn3cc(F)cnc23)c1N1CCCC1 [I-E-21, 2-amino-6-fluoro-N-(3-methyl-4-(pyrrolidin-1-yl)isothiazol-5-yl)pyrazolo[1,5-a]pyrimidine-3-carboxamide]	10 to 1000	++ (Compounds with a Cisplatin sensitization value >0.02 μM but <0.2 μM are marked with “++.”)
Cc1nsc(NC(=O)c2c(N)nn3cc(F)cnc23)c1-c1cncnc1 [I-E-11, 2-amino-6-fluoro-N-(3-methyl-4-(pyrimidin-5-yl)isothiazol-5-yl)pyrazolo[1,5-a]pyrimidine-3-carboxamide]	10 to 1000	++ (Compounds with a Cisplatin sensitization value >0.02 μM but <0.2 μM are marked with “++.”)

Continued, in another order:

Ki [1] [nM]	SMILES	Cisplatin Sensitization Assay [2]
10 to 1000	Nc1nn2cc(F)cnc2c1C(=O)Nc1cncnc1OC1CCN(C2COC2)CC1 [I-A-8, 2-amino-6-fluoro-N-(4-((1-(oxetan-3-yl)piperidin-4-yl)oxy)pyrimidin-5-yl)pyrazolo[1,5-a]pyrimidine-3-carboxamide]	+++ (Compounds with a Cisplatin sensitization value of <0.02 μM are marked with “+++.”)
10 to 1000	CC(C)Oc1ncncc1NC(=O)c1c(N)nn2cc(F)cnc12 [I-A-14, 2-amino-6-fluoro-N-(4-isopropoxypyrimidin-5-yl)pyrazolo[1,5-a]pyrimidine-3-carboxamide]	++ (Compounds with a Cisplatin sensitization value >0.02 μM but <0.2 μM are marked with “++.”)
10 to 1000	CN1CCC[C@H](Oc2ncncc2NC(=O)c2c(N)nn3cc(F)cnc23)C1 [I-A-2, (S)-2-amino-6-fluoro-N-(4-((1-methylpiperidin-3-yl)oxy)pyrimidin-5-yl)pyrazolo[1,5-a]pyrimidine-3-carboxamide]	+ (Compounds with a Cisplatin sensitization value >0.2 μM but <5 μM are marked with “+.”)
1000 to 5000	Nc1nn2cc(F)cnc2c1C(=O)Nc1cncnc1O[C@H]1C[C@]2(CCN2)C1 [I-A-18, N-(4-((4s,6r)-1-azaspiro[3.3]heptan-6-yloxy)pyrimidin-5-yl)-2-amino-6-fluoropyrazolo[1,5-a]pyrimidine-3-carboxamide]	+ (Compounds with a Cisplatin sensitization value >0.2 μM but <5 μM are marked with “+.”)
10 to 1000	Nc1nn2cc(F)cnc2c1C(=O)Nc1cnncc1N1CCC(C(=O)N2CC(F)(F)C2)CC1 [I-B-21, 2-amino-N-(5-(4-(3,3-difluoroazetidine-1-carbonyl)piperidin-1-yl)pyridazin-4-yl)-6-fluoropyrazolo[1,5-a]pyrimidine-3-carboxamide]	+++ (Compounds with a Cisplatin sensitization value of <0.02 μM are marked with “+++.”)
10 to 1000	CN1CCC(Oc2ncncc2NC(=O)c2c(N)nn3cc(F)cnc23)CC1 [I-A-5, 2-amino-6-fluoro-N-(4-((1-methylpiperidin-4-yl)oxy)pyrimidin-5-yl)pyrazolo[1,5-a]pyrimidine-3-carboxamide]	++ (Compounds with a Cisplatin sensitization value >0.02 μM but <0.2 μM are marked with “++.”)
1000 to 5000	Nc1nn2cc(Cl)cnc2c1C(=O)Nc1cncnc1OC1CCN(C2COC2)CC1 [I-A-9, 2-amino-6-chloro-N-(4-((1-(oxetan-3-yl)piperidin-4-yl)oxy)pyrimidin-5-yl)pyrazolo[1,5-a]pyrimidine-3-carboxamide]	+ (Compounds with a Cisplatin sensitization value >0.2 μM but <5 μM are marked with “+.”)
10 to 1000	Nc1nn2cc(F)cnc2c1C(=O)Nc1cnncc1N1CCCCC1 [I-B-9, 2-amino-6-fluoro-N-(5-(piperidin-1-yl)pyridazin-4-yl)pyrazolo[1,5-a]pyrimidine-3-carboxamide]	+++ (Compounds with a Cisplatin sensitization value of <0.02 μM are marked with “+++.”)
10 to 1000	CN1CC[C@@H](Oc2ncncc2NC(=O)c2c(N)nn3cc(F)cnc23)C1 [I-A-10, (R)-2-amino-6-fluoro-N-(4-((1-methylpyrrolidin-3-yl)oxy)pyrimidin-5-yl)pyrazolo[1,5-a]pyrimidine-3-carboxamide]	+ (Compounds with a Cisplatin sensitization value >0.2 μM but <5 μM are marked with “+.”)
1000 to 5000	CN1CC[C@H](Oc2ncncc2NC(=O)c2c(N)nn3cc(F)cnc23)C1 [I-A-11, (S)-2-amino-6-fluoro-N-(4-((1-methylpyrrolidin-3-yl)oxy)pyrimidin-5-yl)pyrazolo[1,5-a]pyrimidine-3-carboxamide]	++ (Compounds with a Cisplatin sensitization value >0.02 μM but <0.2 μM are marked with “++.”)

Reference: patent US8957078B2, “Compounds useful as inhibitors of ATR kinase” (Vertex Pharmaceuticals Incorporated, priority 2013, dated 2015)
